Results from US20230266302A1, “SYNTHESIS AND USE OF N-BENZYL SULFONAMIDES” (THE UNIVERSITY OF TULSA, priority 2020, published 2023).

Key:
Test in all cases: ATP level assay (CellTiter-Glo), percent of control
Assay type in all cases: cell-based
[1] = test system: BxPC3 (pancreatic cancer); conditions: two hour incubation; for activity at 100 µM: Homo sapiens, BXPC-3, 2 h, compound alone, control DMSO, read-out: POC (percent of control) BxPC3
Description: (§1) In the present method, the method of using the available assays has been modified to measure the short-term effect of compounds of interest on ATP levels in the cells. […] In the modified method, the control and test cells are initially treated with the metabolic inhibitor for a period of about thirty minutes to about four hours. Typically, the treatment of the cells with the metabolic inhibitor is for one hour prior to adding the compound to be screened for anti-cancer properties. However, simultaneous treatment with the metabolic inhibitor and the compound being screened should provide satisfactory results. […] ATP synthesis in cells occurs over multiple biochemical pathways. These pathways are very responsive to metabolic inhibitors and/or changes in available nutrients. By incorporating a metabolic inhibitor which is known to impact certain pathways, the disclosed method provides for measurement of a compound's direct effects on the remaining metabolic pathways available for ATP synthesis in the cell.
(§2) Following treatment of the control and test cells with the metabolic inhibitor, the method calls for addition of the compound to be screened for anti-cancer properties to the cells. Following addition of the compound of interest, the assay is allowed to continue for about one hour to about four hours or depending on the luminescing agent up to eighteen hours. However, approximately 60 minutes will be sufficient to determine the ATP inhibiting effect of the compound to be screened on the cells. Following completion of the selected time period, the ATP level within the cell is determined. ATP levels can be determined by luminescence according to standard measuring procedures, i.e. the luminescence level of the assay from the living cells treated with the two component composition is compared to the luminescence level of the assay from the living cells without the two component composition, i.e., the control experiment. Thus, the ATP levels are determined without killing the cells during the incubation of the cells in the presence of the compound of interest. As a result, the measured reduction in ATP level corresponds directly to the inhibition of the metabolic pathways uninhibited by the metabolic blocker.
(§3) A wide variety of ATP luminescing detection reagents are available commercially. So long as the reagent produces a luminescence in the presence of ATP, the reagent will be suitable for use in the present method. Suitable reagents include but are not limited to any ATP dependent luciferase such as but not limited to firefly luciferase, other modified luciferase based reagents, i.e. luciferase derivatives. According to the rapid method for determining the anti-cancer activity of a compound, a sample of living cells is distributed across a number of testing wells. Typically, 96-well plates are used; however, the number of wells is not critical to the current method. When using a 96-well plate the number of living cells will commonly be about 20,000. The sample wells contain a cell growth medium to promote cell health and growth and an additive to prevent bacterial contamination of the wells. One common example of the cell growth medium is DMEM with 10% FBS as described above. One example of the additive to prevent bacterial contamination is a solution of penicillin G and streptomycin referred to commonly as Pen-Strep. The Pen-Strep solution typically contains 5000 units of penicillin G and 5000 micrograms of streptomycin. Thus, the rapid determination of anti-cancer compounds can be carried out using the following method. • The desired number of cells are distributed in a 96-well plate containing 100 μL DMEM plus 10% FBS with optional Pen-Strep. • After 24 hours, cells are treated with the compound of interest or a 5% solution of dimethyl sulfoxide (DMSO) in water as a control. • The time period for exposure to the compound of interest and the DMSO control will vary depending on the luminescing detection reagent. […]

[2] = test system: H293 (kidney cancer); conditions: two hour incubation; for activity at 100 µM: 2 h, compound alone, control DMSO, read-out: POC (percent of control) H293
Description: as §1, §2, §3

[3] = test system: HDF (normal cells); conditions: two hour incubation; for activity at 100 µM: 2 h, compound alone, control DMSO, read-out: POC (percent of control) HDF
Description: as §1, §2, §3

[4] = test system: HeLa (cervical cancer); conditions: two hour incubation; for activity at 100 µM: Homo sapiens, HeLa, 2 h, compound alone, control DMSO, read-out: POC (percent of control) HeLa
Description: as §1, §2, §3

[5] = test system: MCF10A (non-cancerous breast); conditions: two hour incubation; for activity at 100 µM: Homo sapiens, MCF-10A, 2 h, compound alone, control DMSO, read-out: POC (percent of control) MCF10A
Description: as §1, §2, §3

[6] = test system: MCF7 (breast cancer); conditions: two hour incubation; for activity at 100 µM: Homo sapiens, MCF7, 2 h, compound alone, control DMSO, read-out: POC (percent of control) MCF7
Description: as §1, §2, §3

[7] = test system: MDA-MB (breast cancer); conditions: two hour incubation; for activity at 100 µM: 2 h, compound alone, control DMSO, read-out: POC (percent of control) MDA-MB
Description: as §1, §2, §3

[8] = test system: NCI-H196 (lung cancer); conditions: two hour incubation; for activity at 100 µM: NCI-H196, 2 h, compound alone, control DMSO, read-out: POC (percent of control) NCI-H196
Description: as §1, §2, §3

[9] = test system: PC3 (prostate cancer); conditions: two hour incubation; for activity at 100 µM: 2 h, compound alone, control DMSO, read-out: POC (percent of control) PC3
Description: as §1, §2, §3

[10] = test system: SkBr3 (breast cancer); conditions: two hour incubation; for activity at 100 µM: Homo sapiens, SK-BR-3, 2 h, compound alone, control DMSO, read-out: POC (percent of control) SkBr3
Description: as §1, §2, §3

[11] = test system: T47D (breast cancer); conditions: two hour incubation; for activity at 100 µM: Homo sapiens, T47D, 2 h, compound alone, control DMSO, read-out: POC (percent of control) T47D
Description: as §1, §2, §3

[12] = compound 100 uM + 2DG (about 10-20 mM)
[13] = compound 100 uM + rotenone (approximately 1.25 μM)

## Cc1cccc2[nH]cc(CNS(=O)(=O)c3ccccc3)c12 [Compound 7, N-[(4-methyl-1H-indol-3-yl)methyl]benzenesulfonamide]
[1]
  activity at 100 µM: 86.3%
[1]; [12]
  POC (percent of control) BxPC3: 60.9% of control
[1]; [13]
  POC (percent of control) BxPC3: 79.1% of control
[2]
  activity at 100 µM: 93.2%
[2]; [12]
  POC (percent of control) H293: 60.9% of control
[2]; [13]
  POC (percent of control) H293: 65.3% of control
[3]
  activity at 100 µM: 87.7%
[3]; [12]
  POC (percent of control) HDF: 60.8% of control
[3]; [13]
  POC (percent of control) HDF: 77.9% of control
[4]
  activity at 100 µM: 91%
[4]; [12]
  POC (percent of control) HeLa: 70.6% of control
[4]; [13]
  POC (percent of control) HeLa: 79.5% of control
[5]
  activity at 100 µM: 66%
[5]; [12]
  POC (percent of control) MCF10A: 64.5% of control
[5]; [13]
  POC (percent of control) MCF10A: 97.9% of control
[6]
  activity at 100 µM: 107%
[6]; [12]
  POC (percent of control) MCF7: 91.6% of control
[6]; [13]
  POC (percent of control) MCF7: 75.9% of control
[7]
  activity at 100 µM: 85.6%
[7]; [12]
  POC (percent of control) MDA-MB: 81.2% of control
[7]; [13]
  POC (percent of control) MDA-MB: 102.4% of control
[8]
  activity at 100 µM: 84.9%
[8]; [12]
  POC (percent of control) NCI-H196: 70.1% of control
[8]; [13]
  POC (percent of control) NCI-H196: 77.7% of control
[9]
  activity at 100 µM: 95%
[9]; [12]
  POC (percent of control) PC3: 59.4% of control
[9]; [13]
  POC (percent of control) PC3: 82% of control
[10]
  activity at 100 µM: 108%
[10]; [12]
  POC (percent of control) SkBr3: 76.2% of control
[10]; [13]
  POC (percent of control) SkBr3: 88.2% of control
[11]
  activity at 100 µM: 46.5%
[11]; [12]
  POC (percent of control) T47D: 40.1% of control
[11]; [13]
  POC (percent of control) T47D: 66% of control

## Cc1ccc(S(=O)(=O)NCc2nn(C)c3ccccc23)cc1 [Compound 8, 4-methyl-N-[(1-methyl-1H-indazol-3-yl)methyl]benzenesulfonamide]
[1]
  activity at 100 µM: 106%
[1]; [12]
  POC (percent of control) BxPC3: 87.1% of control
[1]; [13]
  POC (percent of control) BxPC3: 93.5% of control
[2]
  activity at 100 µM: 112%
[2]; [12]
  POC (percent of control) H293: 83.5% of control
[2]; [13]
  POC (percent of control) H293: 87.1% of control
[3]
  activity at 100 µM: 99%
[3]; [12]
  POC (percent of control) HDF: 91.3% of control
[3]; [13]
  POC (percent of control) HDF: 88.3% of control
[4]
  activity at 100 µM: 106%
[4]; [12]
  POC (percent of control) HeLa: 80.8% of control
[4]; [13]
  POC (percent of control) HeLa: 99.1% of control
[5]
  activity at 100 µM: 94.6%
[5]; [12]
  POC (percent of control) MCF10A: 77.9% of control
[5]; [13]
  POC (percent of control) MCF10A: 94.4% of control
[6]
  activity at 100 µM: 140%
[6]; [12]
  POC (percent of control) MCF7: 86.2% of control
[6]; [13]
  POC (percent of control) MCF7: 116.7% of control
[7]
  activity at 100 µM: 93.9%
[7]; [12]
  POC (percent of control) MDA-MB: 91.7% of control
[7]; [13]
  POC (percent of control) MDA-MB: 86.2% of control
[8]
  activity at 100 µM: 91.1%
[8]; [12]
  POC (percent of control) NCI-H196: 99.2% of control
[8]; [13]
  POC (percent of control) NCI-H196: 95.1% of control
[9]
  activity at 100 µM: 109%
[9]; [12]
  POC (percent of control) PC3: 87.9% of control
[9]; [13]
  POC (percent of control) PC3: 108.3% of control
[10]
  activity at 100 µM: 88.8%
[10]; [12]
  POC (percent of control) SkBr3: 97.1% of control
[10]; [13]
  POC (percent of control) SkBr3: 103.7% of control
[11]
  activity at 100 µM: 64.1%
[11]; [12]
  POC (percent of control) T47D: 94.6% of control
[11]; [13]
  POC (percent of control) T47D: 101.2% of control
